Laboratory results from patent publication US20240116897A1, “BENZOTHIAZOLE AND BENZIMIDAZOLE DERIVATIVES, PHARMACEUTICALLY ACCEPTABLE SALT THEREOF, PREPARATION METHOD THEREFOR, AND PHARMACEUTICAL COMPOSITION COMPRISING SAME AS ACTIVE INGREDIENT” (KOREA RESEARCH INSTITUTE OF CHEMICAL TECHNOLOGY, priority 2021, published 2024).

Target: T1, SIRT7 protein (Homo sapiens, UniProt Q9NRC8)
T1 construct: purchased SignalChem S41-30H
T1 sequence (Q9NRC8 1-400): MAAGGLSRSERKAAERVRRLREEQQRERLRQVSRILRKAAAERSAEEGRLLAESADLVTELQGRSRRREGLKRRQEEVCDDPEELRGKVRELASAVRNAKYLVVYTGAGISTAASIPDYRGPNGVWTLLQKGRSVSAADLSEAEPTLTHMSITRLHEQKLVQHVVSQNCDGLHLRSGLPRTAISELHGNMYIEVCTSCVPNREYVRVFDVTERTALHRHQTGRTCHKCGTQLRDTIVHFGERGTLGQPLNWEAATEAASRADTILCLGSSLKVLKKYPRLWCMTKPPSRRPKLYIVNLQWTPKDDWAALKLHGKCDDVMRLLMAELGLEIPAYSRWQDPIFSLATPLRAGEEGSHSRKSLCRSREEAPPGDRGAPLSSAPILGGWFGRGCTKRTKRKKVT
Assay: SIRT Glo assay, inhibitory activity against Sirt7
Type: biochemical
Conditions: 10 μM compound
Description: Promega's Cat. No. 6450 SIRT Glo assay kit was used, and as the target SIRT7 protein, No. S41-30H protein of SignalChem's Cat. was used. Prepare the compound by diluting it in SIRT Glo buffer in advance to a concentration twice as thick as the final concentration. For the positive control group of white 384 well plate (Greiner Bioone, white, small volume, Cat. No. 874075), and for compound group, dilute sirt7 protein in SIRT Glo buffer and dispense by 5 μL to contain 20 ng per well. In the background control group, 10 μL of SIRT Glo buffer is dispensed.
After adding 5 μL of SIRT Glo buffer to the positive control group, and 5 μL of the diluted compound to the compound group, react for 30 minutes. After making the substrate provided in the SIRT Glo assay, adding 10 μL each, and reacting for 1 hour, the luciferase activity is measured with a microplate reader (Molecular Device, spectramax i3).
Subtract the luciferase level of the background control group in all wells. The % inhibition of the compound was used to obtain the compound's rate of inhibitory activity against sirt7 in the following:
% inhibition=100−(compound group/positive control group)×100.

Row | inhibition at 10 µM [%] | Compound
1 | 98 | O=C(Nc1nc2ccccc2s1)c1ccc(CN2CCN(C(=O)Nc3ccccc3)CC2)cc1 [Compound 1-38, 4-(4-(benzo[d]thiazol-2-ylcarbamoyl)benzyl)-N-phenylpiperazine-1-carboxamide]
2 | 87 | O=C(Nc1nc2ccccc2s1)c1ccc(CN2CCN(C(=O)Nc3ccc(C(F)(F)F)cc3)CC2)cc1 [Compound 1-39, 4-(4-(benzo[d]thiazol-2-ylcarbamoyl)benzyl)-N-(4-(trifluoromethyl)phenyl)piperazine-1-carboxamide]
3 | 87 | CC(C)NC(=O)N1CCN(Cc2ccc(C(=O)Nc3nc4ccccc4s3)cc2)CC1 [Compound 1-40, 4-(4-(benzo[d]thiazol-2-ylcarbamoyl)benzyl)-N-isopropylpiperazine-1-carboxamide]
4 | 66 | O=C(Nc1nc2ccccc2s1)c1ccc(CN2CCN(C(=O)NC34CC5CC(CC(C5)C3)C4)CC2)cc1 [Compound 1-41]
5 | 89 | COc1ccc(NC(=O)N2CCN(Cc3ccc(C(=O)Nc4nc5ccccc5s4)cc3)CC2)cc1 [Compound 1-42, 4-(4-(benzo[d]thiazol-2-ylcarbamoyl)benzyl)-N-(4-methoxyphenyl)piperazine-1-carboxamide]
6 | 79 | O=C(Nc1nc2ccccc2s1)c1ccc(CN2CCN(C(=O)Nc3ccccc3C(F)(F)F)CC2)cc1 [Compound 1-43, 4-(4-(benzo[d]thiazol-2-ylcarbamoyl)benzyl)-N-(2-(trifluoromethyl)phenyl)piperazine-1-carboxamide]
7 | 95 | O=C(Nc1nc2ccccc2s1)c1ccc(CN2CCN(C(=O)Nc3ccc(F)cc3)CC2)cc1 [Compound 1-44, 4-(4-(benzo[d]thiazol-2-ylcarbamoyl)benzyl)-N-(4-fluorophenyl)piperazine-1-carboxamide]
8 | 96 | O=C(Nc1nc2ccccc2s1)c1ccc(CN2CCN(C(=O)Nc3ccccc3F)CC2)cc1 [Compound 1-45, 4-(4-(benzo[d]thiazol-2-ylcarbamoyl)benzyl)-N-(2-fluorophenyl)piperazine-1-carboxamide]
9 | 84 | O=C(Nc1nc2ccccc2s1)c1ccc(CN2CCN(C(=O)Nc3ccc4c(c3)CCC4)CC2)cc1 [Compound 1-46, 4-(4-(benzo[d]thiazol-2-ylcarbamoyl)benzyl)-N-(2,3-dihydro-1H-inden-5-yl)piperazine-1-carboxamide]
10 | 88 | Cc1cc(C)cc(NC(=O)N2CCN(Cc3ccc(C(=O)Nc4nc5ccccc5s4)cc3)CC2)c1 [Compound 1-47, 4-(4-(benzo[d]thiazol-2-ylcarbamoyl)benzyl)-N-(3,5-dimethyphenyl)piperazine-1-carboxamide]
11 | 54 | CCCCOC(=O)CNC(=O)N1CCN(Cc2ccc(C(=O)Nc3nc4ccccc4s3)cc2)CC1 [Compound 1-48, butyl-(4-(4-(benzo[d]thiazol-2-ylcarbamoyl)benzyl)piperazine-1-carbonyl)glycinate]
12 | 89 | O=C(Nc1nc2ccccc2s1)c1ccc(CN2CCN(C(=O)Nc3ccc(Cl)cc3)CC2)cc1 [Compound 1-49, 4-(4-(benzo[d]thiazol-2-ylcarbamoyl)benzyl)-N-(4-chlorophenyl)piperazine-1-carboxamide]
13 | 61 | CCc1ccccc1NC(=O)N1CCN(Cc2ccc(C(=O)Nc3nc4ccccc4s3)cc2)CC1 [Compound 1-50, 4-(4-(benzo[d]thiazol-2-ylcarbamoyl)benzyl)-N-(2-ethylphenyl)piperazine-1-carboxamide]
14 | 90 | Cc1ccc(NC(=O)N2CCN(Cc3ccc(C(=O)Nc4nc5ccccc5s4)cc3)CC2)cc1 [Compound 1-51, 4-(4-(benzo[d]thiazol-2-ylcarbamoyl)benzyl)-N-(p-tolyl)piperazine-1-carboxamide]
15 | 85 | CCc1ccc(NC(=O)N2CCN(Cc3ccc(C(=O)Nc4nc5ccccc5s4)cc3)CC2)cc1 [Compound 1-52, 4-(4-(benzo[d]thiazol-2-ylcarbamoyl)benzyl)-N-(4-ethylphenyl)piperazine-1-carboxamide]
16 | 97 | O=C(Nc1nc2ccccc2s1)c1ccc(CN2CCN(C(=O)NC3CCCCC3)CC2)cc1 [Compound 1-53, 4-(4-(benzo[d]thiazol-2-ylcarbamoyl)benzyl)-N-cyclohexylpiperazine-1-carboxamide]
17 | 100 | O=C(Nc1nc2ccccc2s1)c1ccc(CN2CCN(C(=O)NCCl)CC2)cc1 [Compound 1-54, 4-(4-(benzo[d]thiazol-2-ylcarbamoyl)benzyl)-N-(chloromethyl)piperazine-1-carboxamide]

Row | inhibition at 10 µM [%] | Compound
18 | 100 | CCCNC(=O)N1CCN(Cc2ccc(C(=O)Nc3nc4ccccc4s3)cc2)CC1 [Compound 1-55, 4-(4-(benzo[d]thiazol-2-ylcarbamoyl)benzyl)-N-propylpiperazine-1-carboxamide]
19 | 87 | CCOc1ccccc1NC(=O)N1CCN(Cc2ccc(C(=O)Nc3nc4ccccc4s3)cc2)CC1 [Compound 1-56, 4-(4-(benzo[d]thiazol-2-ylcarbamoyl)benzyl)-N-(2-ethoxyphenyl)piperazine-1-carboxamide]
20 | 12 | CC(C)(C)CC(C)(C)NC(=O)N1CCN(Cc2ccc(C(=O)Nc3nc4ccccc4s3)cc2)CC1 [Compound 1-57, 4-(4-(benzo[d]thiazol-2-ylcarbamoyl)benzyl)-N-(2,4,4-trimethylpentan-2-yl)piperazine-1-carboxamide]
21 | 87 | O=C(Nc1nc2ccccc2s1)c1ccc(CN2CCN(C(=O)Nc3ccccc3Br)CC2)cc1 [Compound 1-58, 4-(4-(benzo[d]thiazol-2-ylcarbamoyl)benzyl)-N-(2-bromophenyl)piperazine-1-carboxamide]
22 | 5 | CCC(=O)N1CCN(Cc2ccc(C(=O)Nc3nc4ccccc4s3)cc2)CC1 [Compound 1-59, N-(benzo[d]thiazol-2-yl)-4-((4-propionylpiperazin-1-yl)methyl)benzamide]
23 | 7 | O=C(Nc1nc2ccccc2s1)c1ccc(CN2CCN(C(=O)c3ccccc3)CC2)cc1 [Compound 1-60, N-(benzo[d]thiazol-2-yl)-4-((4-benzoylpiperazin-1-yl)methyl)benzamide]
24 | 7 | O=C(Nc1nc2ccccc2s1)c1ccc(CN2CCN(Cc3ccccc3)CC2)cc1 [Compound 1-62, N-(benzo[d]thiazol-2-yl)-4-((4-benzylpiperazin-1-yl)methyl)benzamide]
25 | 10 | CC(C)(C)OC(=O)N1CCC(=Cc2ccc(C(=O)Nc3nc4ccccc4s3)cc2)CC1 [Compound 1-63, tert-butyl 4-(4-(benzo[d]thiazol-2-ylcarbamoyl)benzylidene)piperidine-1-carboxylate]
26 | 7 | CC(C)(C)OC(=O)N1CCC(Cc2ccc(C(=O)Nc3nc4ccccc4s3)cc2)CC1 [Compound 1-64, tert-butyl 4-(4-(benzol[d]thiazol-2-ylcarbamoyl)benzyl)piperidine-1-carboxylate]
27 | 5 | O=C(Nc1nc2ccccc2s1)c1ccc(C=C2CCNCC2)cc1 [Compound 1-65, N-(benzo[d]thiazol-2-yl)-4-(piperidin-4-ylidenemethyl)benzamide]
28 | 16 | O=C(Nc1nc2ccccc2s1)c1ccc(CC2CCNCC2)cc1 [Compound 1-66, N-(benzo[d]thiazol-2-yl)-4-(piperidin-4-ylmethyl)benzamide]
29 | 92 | CCNC(=O)N1CCC(=Cc2ccc(C(=O)Nc3nc4ccccc4s3)cc2)CC1 [Compound 1-67, 4-(4-(benzo[d]thiazol-2-ylcarbamoyl)benzylidene)-N-ethylpiperidine-1-carboxamide]
30 | 100 | O=C(Nc1nc2ccccc2s1)c1ccc(C=C2CCN(C(=O)Nc3ccccc3)CC2)cc1 [Compound 1-68, 4-(4-(benzo[d]thiazol-2-ylcarbamoyl)benzylidene)-N-phenylpiperidine-1-carboxamide]
31 | 100 | CCNC(=O)N1CCC(Cc2ccc(C(=O)Nc3nc4ccccc4s3)cc2)CC1 [Compound 1-69, 4-(4-(benzo[d]thiazol-2-ylcarbamoyl)benzyl)-N-ethylpiperidine-1-carboxamide]
32 | 23 | O=C(Nc1nc2ccccc2s1)c1ccc(CN2C[C@@H]3C[C@H]2CN3)cc1 [Compound 1-71, 4-(((1S,4S)-2,5-diazabicyclo[2.2.1]heptan-2-yl)methyl)-N-(benzo[d]thiazol-2-yl)benzamide]
33 | 40 | CCNC(=O)N1C[C@@H]2C[C@H]1CN2Cc1ccc(C(=O)Nc2nc3ccccc3s2)cc1 [Compound 1-72, (1S,4S)-5-(4-(benzo[d]thiazol-2-ylcarbamoyl)benzyl)-N-ethyl-2,5-diazabicyclo[2.2.1]heptane-2-carboxamide]

Row | Compound | inhibition at 10 µM [%]
34 | CCN1CCN(Cc2ccc(C(=O)Nc3nc4ccccc4s3)cc2)CC1 [Compound 1-61, N-(benzo[d]thiazol-2-yl)-4-((4-ethylpiperazin-1-yl)methyl)benzamide] | 3
